Like-named read-outs stand apart in the source and are kept apart here. Numbered stars: 1 amine (or outer) side, 2 acyl side, 3 side chain; on linkers, the order of the positions; unused ones are H or OH. Side chains are listed from the residue outwards. Ends that are not written are not given here. Peptide text beside a SMILES is read from it. * marks the point of attachment. X1 = C[C@H](NC(=O)[C@@H]1CCCN1C(=O)[C@@H](N)CSC1CC(=O)N(CCC(=O)*)C1=O)C(=O)N[C@@H](CCCCN)C(=O)O; γGlu = O=C(O)[C@H](CCC(=O)[*:2])N[*:1]; Fumaroyl = O=C(O)/C=C/C(=O)*; Suc = O=C(CCC(=O)[*:2])[*:1]; Lauroyl = CCCCCCCCCCCC(=O)*; AEEA = NCCOCCOCC(=O)O
Key:
Assay type in all cases: cell-based
[1] = biological target: T1, human ETB receptor (Homo sapiens, UniProt P24530); assay: Determination of EC50 of polypeptides against human ETB receptor (IP-One Gq kit)
T1 construct: expressed in transfected cells; host or cells: 293T-17 cells, transient transfection
T1 sequence (P24530 27-442): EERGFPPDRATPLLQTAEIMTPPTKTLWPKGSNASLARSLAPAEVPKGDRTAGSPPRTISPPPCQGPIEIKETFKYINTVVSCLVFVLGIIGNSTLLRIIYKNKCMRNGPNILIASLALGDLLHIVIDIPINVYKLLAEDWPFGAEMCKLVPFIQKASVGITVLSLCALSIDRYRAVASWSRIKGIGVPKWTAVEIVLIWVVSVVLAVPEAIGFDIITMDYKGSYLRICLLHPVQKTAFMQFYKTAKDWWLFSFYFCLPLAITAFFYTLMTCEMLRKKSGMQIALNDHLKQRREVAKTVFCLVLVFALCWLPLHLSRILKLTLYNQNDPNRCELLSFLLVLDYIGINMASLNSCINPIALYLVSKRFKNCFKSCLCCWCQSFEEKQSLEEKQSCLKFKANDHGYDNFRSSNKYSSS
Method: (§1) 293T-17 cells were seeded at a density of 650,000 cells per well in a 6-well plate and cultured overnight in an incubator at 37°C and 5% CO2. Afterward, the cells were transfected with an expression vector, PCDNA3.1-hETB which contained a human ETB receptor gene, at a plasmid concentration of 2.5 µg per well. The cells were further cultured for 48 hours, and green fluorescence expression was observed under a fluorescence microscope. The cells were then digested with trypsin and counted. The activity of compounds on the human ETB receptor was determined with the IP-One Gq kit from Cisbio Bioassays. The cells were suspended in Stim Buffer provided in the kit and the cell suspension was added to a 96-well detection plate at 7 µL cell suspension (containing 30,000 cells) per well. The polypeptides to be tested (prepared according to the Preparation Example of the invention) were diluted in Stim B to obtain a gradient of 11 concentration points. For each concentration point, the polypeptides to be tested were dissolved in Stim B to be at a concentration of 2×, and added at 7 µL to the test cells, while 7 µL of PBS solution was added to the cells in the negative control wells. The plate was sealed and incubated at 37°C for 1 hour in a cell culture incubator. Detection wells, positive control wells containing human endothelin ET1 (ET1: […] (C1-C15,C3-C11)), and PBS control wells were each added with 3 µL of IP1 d2 working solution and 3 µL of IP1 Tb cryptotate Antibody working solution. The plate was then sealed and incubated in the dark at room temperature (25°C±5°C) for 1 hour. The plate seal was removed, and the […] at 665 nm and 620 nm was measured with an ID5 microplate reader. The ratio of the acceptor emission signal to the donor emission signal, i.e., (signal at 665 nm/signal at 620 nm)×10^4, was calculated for each well. With F representing the average value of values of signal at 665 nm/signal at 620 nm for the test samples at various concentrations, a scatterplot was plotted, where the abscissa represented the F value, and the ordinate represented the logarithmic value of the peptide concentration. A curve was fitted with an appropriate method to calculate EC50 values of the polypeptides against the human ETB receptor. Another method was provided for fitting a curve where activation rate of the test polypeptides at each concentration relative to the positive control sample human endothelin ET1 was calculated first with the method in Example 1, and a scatterplot was plotted, where the abscissa represented the activation rate, and the ordinate represented the logarithmic value of the polypeptide concentration. A curve was fitted with an appropriate method to calculate the EC50 values of the polypeptides against the human ETB receptor.

[2] = biological target: T2, dog ETB receptor (Canis lupus familiaris, UniProt P56497); assay: Determination of EC50s of polypeptides against dog ETB receptor; conditions: Table 7, dog ETB receptor; for EC50: read-out: DETAR Agonist Activity EC50
T2 construct: expressed in transfected cells
T2 sequence (P56497 27-442): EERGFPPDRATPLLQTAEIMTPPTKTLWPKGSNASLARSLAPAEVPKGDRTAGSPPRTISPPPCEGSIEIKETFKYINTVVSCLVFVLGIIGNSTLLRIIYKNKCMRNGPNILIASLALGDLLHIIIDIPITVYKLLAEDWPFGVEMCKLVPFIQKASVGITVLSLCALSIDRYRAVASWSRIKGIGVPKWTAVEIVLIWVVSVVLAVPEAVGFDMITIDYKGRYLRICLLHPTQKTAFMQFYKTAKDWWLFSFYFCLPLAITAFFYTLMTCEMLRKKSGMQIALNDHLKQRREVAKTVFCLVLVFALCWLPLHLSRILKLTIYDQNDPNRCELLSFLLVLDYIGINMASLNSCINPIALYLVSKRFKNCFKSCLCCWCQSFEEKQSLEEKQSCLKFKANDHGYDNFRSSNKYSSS
Method: as §1
The process is the same as that in Example 3, except that the transfected plasmid was expression vector PCDNA3.1-DETB which contained a dog ETB receptor gene. EC50 values of the polypeptide against the dog ETB receptor were calculated (see Figures 8-10). The sequence of the dog endothelin receptor B (NCBI accession number: NM_001010943.2).

[3] = biological target: T3, rat ETB receptor (Rattus norvegicus, UniProt P21451); assay: Determination of EC50s of polypeptides against rat ETB receptor; conditions: Table 8, rat ETB receptor; for EC50: read-out: DETAR Agonist Activity EC50
T3 construct: expressed in transfected cells
T3 sequence (P21451 27-442): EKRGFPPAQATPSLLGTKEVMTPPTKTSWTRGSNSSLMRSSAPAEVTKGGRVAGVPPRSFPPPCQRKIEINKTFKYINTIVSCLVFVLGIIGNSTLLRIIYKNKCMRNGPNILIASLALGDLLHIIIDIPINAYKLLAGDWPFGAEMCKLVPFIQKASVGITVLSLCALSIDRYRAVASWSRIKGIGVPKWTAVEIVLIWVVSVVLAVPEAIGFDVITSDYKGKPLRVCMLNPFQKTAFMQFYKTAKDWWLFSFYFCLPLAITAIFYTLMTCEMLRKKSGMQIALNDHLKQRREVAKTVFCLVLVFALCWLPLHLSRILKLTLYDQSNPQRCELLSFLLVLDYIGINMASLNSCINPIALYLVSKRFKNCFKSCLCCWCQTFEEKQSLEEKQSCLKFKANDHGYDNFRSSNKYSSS
Method: as §1
The process is the same as that in Example 3, except that the transfected plasmid was expression vector PCDNA3.1-RETB which contained a rat ETB receptor gene. EC50 values of the polypeptides against the rat ETB receptor were calculated (see Figures 11-13). The sequence of the rat ETB receptor (NCBI accession number: X57764.1).

[4] = 293T-17 cells transfected with PCDNA3.1-hETB, read-out: hETBR agonist activity EC50/nM

Compound	EC50 [1, 4]	EC50 [2]	EC50 [3]	EC50 [1]	DETAR Agonist Activity, % ([2]; @10nM)	DETAR Agonist Activity, % ([2]; @100nM)	DETAR Agonist Activity, % ([3]; @10nM)	DETAR Agonist Activity, % ([3]; @100nM)
CCCCCCCCCCCC(=O)N[C@@H](CCC(=O)NCCOCCOCC(=O)NCCCC[C@H](NC(=O)[C@H](Cc1c[nH]cn1)NC(=O)[C@H](C)NC(=O)[C@H](Cc1ccccc1)NC(=O)[C@H](Cc1ccc(O)cc1)NC(=O)[C@@H](NC(=O)[C@H](C)NC(=O)[C@H](CCC(=O)O)NC(=O)[C@H](CCC(=O)O)NC(=O)[C@H](CC(=O)O)NC(=O)/C=C/C(=O)O)C(C)C)C(=O)N[C@@H](CC(=O)O)C(=O)N[C@H](C(=O)N[C@H](C(=O)N[C@@H](Cc1c[nH]c2ccccc12)C(=O)O)[C@@H](C)CC)C(C)C)C(=O)O [BX229-Na] (Fumaroyl-DEEAVYFAHK([AEEA-γGlu-Lauroyl])DVIW-OH)	16.7 nM	17.9 nM	7.22 nM	–	–	–	–	–
CC[C@H](C)[C@H](NC(=O)[C@H](CC(=O)O)NC(=O)[C@H](CCCCNC(=O)COCCOCCNC(=O)CCN1C(=O)CC(SC[C@H](N)C(=O)N2CCC[C@H]2C(=O)N[C@@H](C)C(=O)N[C@@H](CCCCN)C(=O)O)C1=O)NC(=O)[C@H](Cc1c[nH]cn1)NC(=O)[C@H](C)NC(=O)[C@H](Cc1ccccc1)NC(=O)[C@H](Cc1ccc(O)cc1)NC(=O)[C@@H](NC(=O)[C@H](C)NC(=O)[C@H](CCC(=O)O)NC(=O)[C@H](CCC(=O)O)NC(=O)[C@H](CC(=O)O)NC(=O)/C=C/C(=O)O)C(C)C)C(=O)N[C@H](C(=O)N[C@@H](Cc1c[nH]c2ccccc12)C(=O)O)[C@@H](C)CC (stereo partly drawn) [BX-95] (Fumaroyl-DEEAVYFAHK([AEEA-X1])DIIW-OH)	45.6 nM	69.1 nM	24 nM	–	–	–	–	–
CC[C@H](C)[C@H](NC(=O)[C@H](CC(=O)O)NC(=O)[C@H](CC(C)C)NC(=O)[C@H](Cc1c[nH]cn1)NC(=O)[C@H](C)NC(=O)[C@H](Cc1ccccc1)NC(=O)[C@H](Cc1ccc(O)cc1)NC(=O)[C@@H](NC(=O)[C@H](C)NC(=O)[C@H](CCC(=O)O)NC(=O)[C@H](CCC(=O)O)NC(=O)[C@H](CC(=O)O)NC(=O)CCC(=O)O)C(C)C)C(=O)N[C@H](C(=O)N[C@@H](Cc1c[nH]c2ccccc12)C(=O)O)[C@@H](C)CC [IRL1620, reference compound] (Suc-DEEAVYFAHLDIIW-OH)	–	–	–	1.33 nM	–	–	–	–
Fum-DEEEVYFAHKDIIW (Fumaroyl-DEEEVYFAHKDIIW) [BX-52]	–	–	–	–	76.82%@10 nM	104.49%@1 00nM	22.36%@10n M	389.09%@100 nM
Fum-DEEEVYFAHOrnDIIW [BX-59]	–	–	–	–	14.7%@10n M	117.46%@1 00nM	314.15%@10n M	46.94%@100n M
Suc-DE cyclo(CEEC)YFAHKDIIW (Suc-DECEECYFAHKDIIW; not fully specified (bridges); printed as Suc-DE cyclo(CEEC)YFAHKDIIW; also: cyclo(CEEC) in N-terminal extension, bond type not given here) [BX-57]	–	–	–	–	–	49.81%	67.42%	218.34%

— patent publication EP4702986A1, “POLYPEPTIDE AND USE THEREOF” (Biocells (Beijing) Biotech Co., Ltd., priority 2023, dated 2024)
